Key:
[1] = system: relapsed or refractory systemic ALCL; conditions: cited from earlier work
[2] = system: relapsed or refractory ALCL; conditions: 6 of 17 patients; cited from earlier work
[3] = Plasma alectinib pharmacokinetics; format: in vivo, human
[4] = system: relapsed or refractory ALCL; conditions: 36 pediatric patients treated weekly; cited from earlier work
[5] = patients who achieved CR with BV

Q: What does the source list for “BV: anti-CD30 Ab drug conjugated to the microtubule-disrupting agent, monomethyl auristatin E”?
A: CR rate ([1]; 33 of 58 patients): 57%; Objective response rate ([1]; 50 of 58 patients): 86%; Patients without recurrence with no treatment after a BV treatment regime [1]: approximately 15%; Peripheral neuropathies, patients [1]: 41%; 5-year OS [1, 5]: 79%; 5-year PFS [1, 5]: 57%

Q: Which Objective response rate [2] does the source give for C#CCC(Cc1cnc2nc(N)nc(N)c2n1)c1ccc(C(=O)N[C@@H](CCC(=O)O)C(=O)O)cc1 (stereo partly shown) [pralatrexate] here?
A: 35%

Q: What does the source list for CCc1cc2c(cc1N1CCC(N3CCOCC3)CC1)C(C)(C)c1[nH]c3cc(C#N)ccc3c1C2=O [alectinib]?
A: Time to steady-state peak concentration (median) ([3]; cohort A: younger than 15 years, 300 mg/d): 4 h; Time to steady-state peak concentration (median) ([3]; cohort B: younger than 15 years, 600 mg/d): 5 h; Time to steady-state peak concentration (median) ([3]; cohort C: 15 years or older, 600 mg/d): 4 h; Peak concentration of alectinib ([3]; the patient who died following disease progression after the first course (cohort C)): 16.97 mg/mL

Q: With CC[C@]1(O)C[C@@H]2CN(CCc3c([nH]c4ccccc34)[C@@](C(=O)OC)(c3cc4c(cc3OC)N(C)[C@H]3[C@@](O)(C(=O)OC)[C@H](OC(C)=O)[C@]5(CC)C=CCN6CC[C@]43[C@@H]65)C2)C1 [vinblastine] as the molecule, how does the “5-year EFS rate” value [4] read?
A: 30%

Q: And the CR rate [4]?
A: 83%
